Structures are written as SMILES.

Holding throughout (type): toxicity, cell-based
The subject of data set [1] is U2OS. Nature of the data set: Incucyte cell viability with U2OS. As to conditions: human, 10 µM, compound concentration 10 uM.
Data set [2] has as its system HEK-293T. Nature of the data set: Incucyte cell viability with HEK293T. The settings on record: human, 10 µM, compound concentration 10 uM.
In data set [3] the test system is Fibroblast. Nature of the data set: Incucyte cell viability with human fibroblast. As to conditions: 10 µM, compound concentration 10 uM.
Also: unitless GR value; below 1 slowed growth and below 0 cell loss.

Consider `COc1cc(-c2cncc(-c3ccc(N4CCN(C(C)C)CC4)cc3)c2C)cc(F)c1C(=O)N1CCCC1`, for which the “Growth Rate” value is listed as 1 in data set [1] (12 h, replicate number 2); 0.99 in data set [1] (18 h, replicate number 2); 0.89 in data set [1] (24 h, replicate number 2); -0.5 in data set [2] (0 h, replicate number 1); -0.2 in data set [2] (0 h, replicate number 2); 0.92 in data set [2] (24 h, replicate number 2). Further, the “Growth Rate” value in data set [3] (0 h, replicate number 1) is -0.08; in data set [3] (0 h, replicate number 2), 0.49; in data set [3] (6 h, replicate number 2), -0.22; in data set [3] (12 h, replicate number 2), 0.11; in data set [3] (18 h, replicate number 1), 0.73; in data set [3] (18 h, replicate number 2), 0.27. For the same compound, the “Growth Rate” value is 0.76 in data set [3] (24 h, replicate number 1) and 0.4 in data set [3] (24 h, replicate number 2).
Turning to `Oc1c(-c2cccnc2)cnn1-c1ccccn1`, the “Growth Rate” value is 0.87 in data set [1] (6 h, replicate number 1); 0.84 in data set [1] (24 h, replicate number 1); 0.54 in data set [2] (0 h, replicate number 1); -0.2 in data set [2] (0 h, replicate number 2); 0.91 in data set [2] (6 h, replicate number 1); 0.86 in data set [3] (0 h, replicate number 2). Further, the “Growth Rate” value stood at 0.44 in data set [3] (18 h, replicate number 2); 0.87 in data set [3] (24 h, replicate number 1); 0.59 in data set [3] (24 h, replicate number 2).
On to `C=CC(=O)N1CCC[C@@H](n2nc(-c3ccc(Oc4ccccc4)cc3)c3c(N)ncnc32)C1` [IBRUTINIB], for which the “Growth Rate” value is -0.06 in data set [1] (0 h, replicate number 1); 0.8 in data set [1] (0 h, replicate number 2); -0.04 in data set [1] (6 h, replicate number 1); 0.61 in data set [1] (6 h, replicate number 2); 0.53 in data set [1] (12 h, replicate number 1); 0.61 in data set [1] (12 h, replicate number 2). For the same compound, the “Growth Rate” value in data set [1] (18 h, replicate number 1) is recorded as 0.56; in data set [1] (24 h, replicate number 1), 0.63; in data set [1] (24 h, replicate number 2), 0.55; in data set [2] (0 h, replicate number 2) it was -1; in data set [2] (6 h, replicate number 1) it was -0.5; in data set [2] (6 h, replicate number 2), -0.48. The “Growth Rate” value in data set [2] (12 h, replicate number 1) was -0.04; in data set [2] (12 h, replicate number 2), -0.25; in data set [2] (18 h, replicate number 1), 0.36; in data set [2] (18 h, replicate number 2), 0.27; in data set [2] (24 h, replicate number 1), 0.51; in data set [2] (24 h, replicate number 2), 0.25. Moreover, the “Growth Rate” value in data set [3] (6 h, replicate number 1) is 0.04; in data set [3] (6 h, replicate number 2), 0.23; in data set [3] (12 h, replicate number 2) it was 0.79; in data set [3] (18 h, replicate number 1) it was 0.66.
As for `C[C@H]1CN(C2COC2)CCN1c1ccc(Nc2cc(-c3ccnc(N4CCn5c(cc6c5CC(C)(C)C6)C4=O)c3CO)cn(C)c2=O)nc1` [FENEBRUTINIB], the “Growth Rate” value in data set [1] (6 h, replicate number 1) was 0.53; in data set [1] (12 h, replicate number 1), 0.69; in data set [1] (12 h, replicate number 2) it was 0.99; in data set [1] (18 h, replicate number 2), 0.98; in data set [1] (24 h, replicate number 1), 0.81; in data set [1] (24 h, replicate number 2), 1. In addition, the “Growth Rate” value in data set [2] (6 h, replicate number 1) is on record as 0.81; in data set [2] (6 h, replicate number 2) it was 0.76; in data set [3] (0 h, replicate number 1), -1; in data set [3] (0 h, replicate number 2) it was -0.77; in data set [3] (6 h, replicate number 1) it was 0.44; in data set [3] (12 h, replicate number 2), 0.46. The “Growth Rate” value in data set [3] (18 h, replicate number 2) is 0.94.
Regarding `CN1CCC(C#N)(NC(=O)[C@@H](NC(=O)N2CCOCC2)C(C)(C)C)CC1`, the “Growth Rate” value came out at 0.61 in data set [1] (0 h, replicate number 2); 0.92 in data set [1] (6 h, replicate number 2); 0.98 in data set [1] (12 h, replicate number 1); 0.98 in data set [1] (18 h, replicate number 1); 1 in data set [1] (18 h, replicate number 2); 0.92 in data set [1] (24 h, replicate number 1). The “Growth Rate” value in data set [2] (0 h, replicate number 1) was 0.92; in data set [2] (0 h, replicate number 2), 0.91; in data set [2] (6 h, replicate number 1), 0.8; in data set [3] (0 h, replicate number 2), -0.99; in data set [3] (6 h, replicate number 1) it was 0.5; in data set [3] (18 h, replicate number 1), 0.98. Also, the “Growth Rate” value in data set [3] (18 h, replicate number 2) stood at 0.75; in data set [3] (24 h, replicate number 1), 0.99.
As to `CC(C)(C)c1ccc(-c2coc3ccc(-c4cn[nH]c4)nc23)cc1`, the “Growth Rate” value in data set [1] (0 h, replicate number 1) was 0.77; in data set [1] (0 h, replicate number 2), -0.87; in data set [1] (12 h, replicate number 1), 0.97; in data set [1] (18 h, replicate number 1), 0.67; in data set [1] (18 h, replicate number 2), 0.81; in data set [1] (24 h, replicate number 1) it was 0.5. The “Growth Rate” value in data set [1] (24 h, replicate number 2) amounted to 0.63; in data set [2] (6 h, replicate number 1), 0.67; in data set [2] (6 h, replicate number 2), 0.37; in data set [2] (12 h, replicate number 2), 0.72; in data set [2] (18 h, replicate number 2), 0.95; in data set [2] (24 h, replicate number 2), 0.84. The “Growth Rate” value is recorded as 0.44 in data set [3] (0 h, replicate number 2); -0.96 in data set [3] (6 h, replicate number 1); -0.95 in data set [3] (6 h, replicate number 2); -0.62 in data set [3] (12 h, replicate number 2); -0.24 in data set [3] (18 h, replicate number 2); 0.94 in data set [3] (24 h, replicate number 1). Also, the “Growth Rate” value in data set [3] (24 h, replicate number 2) is reported as -0.11.
Consider `CCCCC/C=C/C=C1/C(=O)C=C[C@@H]1C/C=C\CCCC(=O)O`, for which the “Growth Rate” value is -0.2 in data set [1] (0 h, replicate number 2); 0.82 in data set [1] (6 h, replicate number 2); 0.62 in data set [1] (12 h, replicate number 2); 0.74 in data set [1] (18 h, replicate number 1); 0.7 in data set [1] (18 h, replicate number 2); 0.68 in data set [1] (24 h, replicate number 1). Besides, the “Growth Rate” value in data set [1] (24 h, replicate number 2) is 0.85; in data set [2] (0 h, replicate number 2), -0.01; in data set [2] (12 h, replicate number 1), 0.88; in data set [2] (12 h, replicate number 2) it was 0.95; in data set [2] (18 h, replicate number 1), 0.89; in data set [2] (18 h, replicate number 2), 0.98. The “Growth Rate” value in data set [2] (24 h, replicate number 1) is 0.86; in data set [2] (24 h, replicate number 2) it was 0.94; in data set [3] (0 h, replicate number 2) it was -0.86; in data set [3] (6 h, replicate number 1) it was 0.99; in data set [3] (12 h, replicate number 2), 0.93; in data set [3] (18 h, replicate number 1) it was 0.94. The “Growth Rate” value in data set [3] (18 h, replicate number 2) turned out to be 0.89; in data set [3] (24 h, replicate number 1), 0.72; in data set [3] (24 h, replicate number 2), 0.7.
Turning to `C[C@@]1(Cc2ccc(C#N)cc2)C(=O)N(c2cc(Cl)cc(Cl)c2)c2ncc(C(=O)NC3(c4nc(C5CCC5)no4)CC3)n21` [BI 9446], the “Growth Rate” value worked out at 0.34 in data set [1] (0 h, replicate number 2); 0.76 in data set [1] (6 h, replicate number 1); 1 in data set [1] (6 h, replicate number 2); 0.77 in data set [1] (12 h, replicate number 1); 0.61 in data set [1] (12 h, replicate number 2); 0.83 in data set [1] (18 h, replicate number 1). For the same compound, the “Growth Rate” value in data set [1] (18 h, replicate number 2) amounted to 0.75; in data set [1] (24 h, replicate number 1), 0.67; in data set [1] (24 h, replicate number 2) it was 0.94; in data set [2] (0 h, replicate number 1), 0.53; in data set [2] (6 h, replicate number 1), 0.51; in data set [2] (12 h, replicate number 1) it was 0.15. Moreover, the “Growth Rate” value was 0.74 in data set [2] (12 h, replicate number 2); 0.2 in data set [2] (18 h, replicate number 1); 0.52 in data set [2] (18 h, replicate number 2); 0.21 in data set [2] (24 h, replicate number 1); 0.48 in data set [2] (24 h, replicate number 2); -1 in data set [3] (0 h, replicate number 1). The “Growth Rate” value in data set [3] (0 h, replicate number 2) is -0.17; in data set [3] (6 h, replicate number 1), 0.23; in data set [3] (6 h, replicate number 2) it was -0.58; in data set [3] (12 h, replicate number 1), 0.61; in data set [3] (12 h, replicate number 2), 0.12; in data set [3] (18 h, replicate number 1), 0.41. The “Growth Rate” value in data set [3] (18 h, replicate number 2) is listed as 0.52; in data set [3] (24 h, replicate number 1) it was 0.4; in data set [3] (24 h, replicate number 2), 0.41.
On to `N[C@@H]1CCCN(c2c(/C=C3\SC(=O)NC3=O)cccc2-c2ccccc2)C1`, for which the “Growth Rate” value in data set [1] (0 h, replicate number 1) is -0.41; in data set [1] (12 h, replicate number 1), 0.97; in data set [2] (0 h, replicate number 2) it was -0.99; in data set [2] (6 h, replicate number 2) it was 0.84; in data set [2] (12 h, replicate number 2), 0.79; in data set [2] (18 h, replicate number 1) it was 0.8. Also, the “Growth Rate” value is reported as 0.84 in data set [2] (18 h, replicate number 2); 0.92 in data set [2] (24 h, replicate number 1); 0.97 in data set [2] (24 h, replicate number 2); 0.19 in data set [3] (6 h, replicate number 2); 0.71 in data set [3] (12 h, replicate number 1); 0.34 in data set [3] (12 h, replicate number 2). Also, the “Growth Rate” value is 0.83 in data set [3] (18 h, replicate number 1); 0.55 in data set [3] (18 h, replicate number 2); 1 in data set [3] (24 h, replicate number 1); 0.53 in data set [3] (24 h, replicate number 2).
With `CN(Cc1cccc(F)c1CNc1cc(F)c(S(=O)(=O)Nc2cscn2)c(F)c1)C(C)(C)C`, the “Growth Rate” value in data set [1] (6 h, replicate number 1) was 0.37; in data set [1] (6 h, replicate number 2), 0.58; in data set [1] (12 h, replicate number 1) it was 0.72; in data set [1] (12 h, replicate number 2), 0.86; in data set [1] (18 h, replicate number 1) it was 0.89; in data set [1] (18 h, replicate number 2), 0.97. The “Growth Rate” value in data set [1] (24 h, replicate number 1) was 0.9; in data set [1] (24 h, replicate number 2), 0.96; in data set [2] (0 h, replicate number 1), 0.6; in data set [2] (0 h, replicate number 2), 0.65; in data set [3] (0 h, replicate number 2), -0.81; in data set [3] (18 h, replicate number 1), 0.65.
Turning to `CO[C@H]1CC[C@H](N(c2cc(F)c(Oc3ncc(Cn4nccn4)cc3C(F)(F)F)cc2C(=O)O)C(=O)[C@H]2CC[C@H](C)CC2)CC1`, the “Growth Rate” value stood at 0.66 in data set [1] (0 h, replicate number 1); 0.6 in data set [1] (6 h, replicate number 1); 0.76 in data set [1] (6 h, replicate number 2); 0.82 in data set [1] (12 h, replicate number 2); 1 in data set [1] (18 h, replicate number 2); 0.87 in data set [1] (24 h, replicate number 2). Also, the “Growth Rate” value is 0.27 in data set [2] (0 h, replicate number 1); -0.25 in data set [2] (0 h, replicate number 2); -1 in data set [3] (0 h, replicate number 1); 0.07 in data set [3] (6 h, replicate number 1); -0.41 in data set [3] (6 h, replicate number 2); 0.76 in data set [3] (18 h, replicate number 1). Moreover, the “Growth Rate” value in data set [3] (24 h, replicate number 1) came out at 0.77; in data set [3] (24 h, replicate number 2), 0.67.

The record behind these values is ChEMBL document CHEMBL5303304, “EUbOPEN Chemogenomics Library - IncuCyte” (2023).
